Experimental data from PubChem BioAssay (NCI).
Values joined by “and” are separate entries in the source; they are usually repeats but may differ in a detail not shown here. Equal entries are not always repeated.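 Test compounds were applied to cells in 96-well plates for 48 hours at 5 doses. GI50 is the concentration that inhibits growth by half. At the TGI there is no net growth.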

Experiments:
Assay in all cases: growth of human tumour cells (NCI), 48 h
MDA-MB-435 = test system: MDA-MB-435
HOP-92 NSCLC = test system: HOP-92 NSCLC
SK-OV-3 ovarian = test system: SK-OV-3 ovarian
IGROV1 ovarian = test system: IGROV1 ovarian
OVCAR-5 ovarian = test system: OVCAR-5 ovarian
DU-145 prostate = test system: DU-145 prostate
UACC-62 melanoma = test system: UACC-62 melanoma
COLO 205 colon = test system: COLO 205 colon
SK-MEL-5 melanoma = test system: SK-MEL-5 melanoma
BT-549 breast = test system: BT-549 breast

| SMILES | TGI (MDA-MB-435) [µM] | TGI (HOP-92 NSCLC) [µM] | TGI (SK-OV-3 ovarian) [µM] | TGI (IGROV1 ovarian) [µM] | TGI (OVCAR-5 ovarian) [µM] | TGI (DU-145 prostate) [µM] | TGI (UACC-62 melanoma) [µM] | TGI (COLO 205 colon) [µM] | TGI (SK-MEL-5 melanoma) [µM] | GI50 (HOP-92 NSCLC) [µM] | GI50 (SK-OV-3 ovarian) [µM] | GI50 (IGROV1 ovarian) | GI50 (OVCAR-5 ovarian) [µM] | GI50 (DU-145 prostate) | GI50 (UACC-62 melanoma) [µM] | GI50 (SK-MEL-5 melanoma) [µM] | GI50 (MDA-MB-435) | GI50 (BT-549 breast) [µM] | TGI (BT-549 breast) [µM] | GI50 (COLO 205 colon) [µM] |
| --- | --- | --- | --- | --- | --- | --- | --- | --- | --- | --- | --- | --- | --- | --- | --- | --- | --- | --- | --- | --- |
| CCNCC(=O)Nc1ccc2c(c1)C(=O)c1ccc(NC(=O)CNCC)cc1C2=O | 6.18 | 12.5 | 9.48 | 19.5 | 10.7 | 11.7 | 17.8 | 3.69 | 59.3 | – | – | – | – | – | – | – | – | – | – | – |
| CCOC(=O)C1CC(=O)C=C2CCCCC21 (stereo unspecified) | – | > 100 | > 100 | > 100 | > 100 | – | > 100 | > 100 | > 100 | – | – | – | – | – | – | – | – | – | – | – |
| CCN1/C(=C/C(C)=C/c2sc3ccc4ccccc4c3[n+]2CC)Sc2ccc3ccccc3c21 | – | 0.612 | 0.78 | 0.404 | 1.93 | 0.631 | 1.8 | – | 0.352 | 0.163 | 0.236 | 0.146 µM | 0.486 | 0.142 µM | 0.31 | 0.123 | – | – | – | – |
| O=C(O)c1cnc2c(ccc3[nH]cccc32)c1=O | – | – | > 100 | > 100 | > 100 | – | > 100 | > 100 | > 100 | – | – | – | – | – | – | – | – | – | – | – |
| COc1cc2c3c(n(CCCN=[N+]=[N-])c(=O)c2cc1OC)-c1ccc(F)cc1C3=O | > 100 | 8.15 | > 100 | – | > 100 | > 100 | > 100 | > 100 | 17.9 | 2.27 | 11.6 | – | > 100 | 4.19 µM | 5.27 | 4.25 | 38.1 µM | 12.4 | > 100 | 23.8 |
| CCCCN(CCCC)P(=O)(Oc1ccccc1)Oc1ccccc1 | 19.9 | – | 33.6 | – | 28.3 | 24 | 25.7 | 26.7 | 23.7 | – | 14.9 | – | 13.3 | 11.1 µM | 11.9 | 11.5 | 6.2 µM | 14.9 | 28.3 | 11.3 |
| CCOC(=O)NC(=O)c1cn(CCSCCOC(=O)NCCCCCCNC(=O)OCCSCCn2cc(C(=O)NC(=O)OCC)c(=O)n(C)c2=O)c(=O)n(C)c1=O | – | > 100 | > 100 | – | > 100 | – | > 100 | > 100 | – | – | – | – | – | – | – | – | – | – | – | – |
| O=CCCn1[nH]c(=O)ccc1=O | – | > 100 | – | > 100 | > 100 | – | > 100 | – | > 100 | – | – | – | – | – | – | – | – | – | – | – |
| Cc1ccc(/C(=N/NS(=O)(=O)c2cc(C)c(Cl)cc2Cl)Sc2cc(Cl)c(C)cc2S(N)(=O)=O)cc1 | > 100 | – | > 100 | > 100 | > 100 | > 100 | > 100 | > 100 | > 100 | – | > 100 | > 100 µM | > 100 | 49.7 µM | > 100 | > 100 | > 100 µM | 83.5 | > 100 | > 100 |
| Clc1ccc(-c2cnc3c(-c4ccnc(N5CCNCC5)c4)cnn3c2)cc1 | 3.72 | – | 5.63 | 11.6 | 3.29 | 3.02 | 3.91 | 3.77 | 3.22 | – | 2.72 | 3.34 µM | 1.82 | 1.64 µM | 2.06 | 1.79 | 1.89 µM | 1.6 | 3.02 | 2.14 |
| O=S1Nc2cccc(C(F)(F)F)c2S1 (stereo unspecified) | – | 73.2 | > 100 | > 100 | > 100 | – | > 100 | 35.8 | > 100 | – | – | – | – | – | – | – | – | – | – | – |
| CN1CCN(C)C1c1ccc(C2N(C)CCN2C)cc1 | > 100 | > 100 | > 100 | > 100 | > 100 | > 100 | > 100 | 65.2 | 89.7 | > 100 | > 100 | > 100 µM | 86.4 | 30.2 µM | 56.9 | 24.4 | 34.5 µM | – | – | 23 |
| COc1ccc(C2(Cl)C(Cl)(C(F)(F)F)C2(Cl)C(F)(F)F)cc1 (stereo unspecified) | – | 27.1 | 31.2 | 30.8 | 27 | – | 26.4 | 29.3 | 22.1 | – | – | – | – | – | – | – | – | – | – | – |
| O/N=C1/CCCC/C1=C\c1ccc(Cl)c(Cl)c1 | – | – | 86.9 | > 100 | – | – | > 100 | 38.9 | 35.6 | – | – | – | – | – | – | – | – | – | – | – |
| C[C@@H]1CC[C@@]2(C)OC(c3ccccc3)[C@H](CO)N2C1=O (stereo partly specified) | – | > 100 | – | > 100 | > 100 | – | > 100 | > 100 | > 100 | – | – | – | – | – | – | – | – | – | – | – |
| C=CC12CCCCC1CC(C(=O)OC)=C(O)C2 (stereo unspecified) | – | > 100 | > 100 | > 100 | > 100 | – | > 100 | > 100 | > 100 | – | – | – | – | – | – | – | – | – | – | – |

| SMILES | TGI (MDA-MB-435) [µM] | TGI (HOP-92 NSCLC) [µM] | TGI (SK-OV-3 ovarian) [µM] | TGI (IGROV1 ovarian) [µM] | TGI (OVCAR-5 ovarian) [µM] | TGI (DU-145 prostate) [µM] | TGI (UACC-62 melanoma) [µM] | TGI (COLO 205 colon) [µM] | TGI (SK-MEL-5 melanoma) [µM] | GI50 (HOP-92 NSCLC) [µM] | GI50 (SK-OV-3 ovarian) [µM] | GI50 (IGROV1 ovarian) | GI50 (OVCAR-5 ovarian) [µM] | GI50 (DU-145 prostate) | GI50 (UACC-62 melanoma) [µM] | GI50 (SK-MEL-5 melanoma) [µM] | GI50 (MDA-MB-435) | GI50 (BT-549 breast) [µM] | TGI (BT-549 breast) [µM] | GI50 (COLO 205 colon) [µM] |
| --- | --- | --- | --- | --- | --- | --- | --- | --- | --- | --- | --- | --- | --- | --- | --- | --- | --- | --- | --- | --- |
| NC1=NN(c2ccccc2)C(=O)C1C(=O)C(=O)Nc1ccccc1 (stereo unspecified) | – | > 100 | > 100 | > 100 | > 100 | – | > 100 | > 100 | > 100 | – | – | – | – | – | – | – | – | – | – | – |
| COc1ccc2cc3c4cc(OC)c(OC)cc4ccn3c2c1 | – | > 100 | > 100 | > 100 | > 100 | – | > 100 | > 100 | > 100 | – | – | – | – | – | – | – | – | – | – | – |
| COc1cc2c3c(n(CCCN=[N+]=[N-])c(=O)c2cc1OC)-c1ccccc1C3=O | 83.9 | 68.9 | > 100 | – | – | > 100 | 27.6 | – | 9.25 | 7 | > 100 | – | – | 28 µM | 2.63 | 3.17 | 9.81 µM | 24.4 | > 100 | – |
| CC(=O)OCC1OC(SC2=N/C(=C\c3ccc(Br)s3)C(=O)N2c2ccccc2)C(OC(C)=O)C(OC(C)=O)C1OC(C)=O (stereo unspecified) | > 100 | – | – | > 100 | > 100 | > 100 | > 100 | > 100 | > 100 | – | – | 87.4 µM and 41.7 µM | – | > 100 µM and 42.8 µM | – | – | 86.3 µM and 32.2 µM | – | > 100 | – |
| ClCc1ccccc1Cn1cnc2nc(Cl)nc(Cl)c21 | 13.2 | – | 15.4 | 3.47 | 3.65 | 1.33 | 1.37 | > 100 | 0.997 | – | 4.35 | 1.78 µM | 1.71 | 0.548 µM | 0.495 | 0.369 | 6.04 µM | 1.34 | 3.08 | 0.357 |
| CCCCCCCCCCCCCCCCc1c(C(=O)OC)nc(NC#N)[nH]c1=O | – | > 25 | > 25 | – | > 25 | – | – | > 25 | – | – | – | – | – | – | – | – | – | – | – | – |
| C=C(C)CC(C(=O)O)c1ccc(C)cc1 (stereo unspecified) | – | > 100 | – | > 100 | > 100 | – | > 100 | > 100 | > 100 | – | – | – | – | – | – | – | – | – | – | – |
| c1cc[c]([Ge]([O]c2cccc3cccnc23)([c]2ccccc2)[c]2ccccc2)cc1 | – | 25.5 | 8.56 | 10.3 | 29.5 | – | 16.4 | 14.9 | – | 12.4 | 3.3 | 3.1 µM | 15.9 | – | 4.6 | – | – | – | – | 4.8 |
| C=CCCn1nc(-c2ccccc2)oc1=O | – | > 100 | > 100 | > 100 | > 100 | – | > 100 | > 100 | > 100 | – | – | – | – | – | – | – | – | – | – | – |
| O=C1CCCc2ccc([N+](=O)[O-])c(O)c21 | – | > 100 | > 100 | > 100 | > 100 | – | > 100 | > 100 | > 100 | – | – | – | – | – | – | – | – | – | – | – |
| COc1ccc(OC)c(N2CC(O)=C(c3nc4ccccc4s3)C2=N)c1 | > 100 | > 100 | > 100 | > 100 | > 100 | > 100 | > 100 | > 100 | 46.6 | 40.6 | > 100 | 33.1 µM | > 100 | > 100 µM | 26.4 | 14.7 | 20.8 µM | – | – | 47.3 |
| O=CN/C=C/c1ccccc1 | – | > 100 | > 100 | > 100 | > 100 | > 100 | > 100 | > 100 | > 100 | – | – | – | – | – | – | – | – | – | – | – |
| CN(C)CC1(C)CC/C(=C\c2ccc(Cl)cc2)C1=O (stereo unspecified) | – | > 100 | – | > 100 | > 100 | – | 64.9 | 31.7 | > 100 | – | – | – | – | – | – | – | – | – | – | – |
| CC(=O)N1c2ccccc2N(C(C)=O)C1c1ccc(C2N(C(C)=O)c3ccccc3N2C(C)=O)[nH]1 | – | > 100 | > 100 | > 100 | > 100 | – | > 100 | > 100 | > 100 | – | – | – | – | – | – | – | – | – | – | – |
| COc1ccc(C(=O)/C=C/c2cc(-c3ccc(OC)c(OC)c3)n[nH]2)cc1OC | – | 8.12 | 33.3 | 53.8 | 5.24 | 4.8 | – | 3.1 | 2.96 | 1.97 | 3.13 | 3.13 µM | 1.76 | 1.64 µM | – | 1.58 | – | 1.44 | 2.92 | 1.55 |
| C[C@]12Cc3conc3C(O)=C1CC[C@@H]1C2CC[C@@]2(C)C1CC[C@@H]2O (stereo partly specified) | – | 63.6 | 89 | > 100 | > 100 | – | 54.6 | 99.4 | 29.9 | – | – | – | – | – | – | – | – | – | – | – |
